Measured values: article doi:10.1101/2025.10.10.681657 (bioRxiv, 2025)

Columns and labels:
[1] = molecular target: U4/U6 snRNA construct (92 nt); test: SPR binding to U4/U6 snRNA construct (92 nt); set-up: species or system yeast; conditions: 92 nt RNA, steady-state fit; >100 = signal appeared at 100 μM but failed to fit
Description: SPR experiments were carried out using an SPR optical biosensor (BIAcore 3000, Cytiva, USA) based on reported methods with minor modifications.[35] To avoid RNA degradation during long-time injections, the whole microfluidic system was washed by priming 50% RNase Zap buffer and RNase-free water one day before the experiments. Then, by using running buffer (1xPBS, pH7.4, 0.005% Tween 20, 5% DMSO) at a flow rate of 5 μL/min, the binding assays were performed. In brief, a CM5 chip surface coated with carboxylated dextran was activated by standard EDC/NHS amine-coupling protocol and then conjugated with streptavidin (200 ng/mL in 10 mM sodium acetate buffer, pH 4.5) for 30 min, resulting in 4000~6000 response units (RUs) signal. After streptavidin conjugation, the surface was deactivated (1 M ethanolamine, pH 8.5) for 10 min and regenerated (10 mM NaOH) for 2 min to remove unbound SA. Then, the folded U4/U6 RNA with biotin-label at 5′ end was prepared (according to the above-mentioned method) at 5 μM and injected in flow-cell (Fc) 2 for 30 min while Fc1 was kept blank as a reference. Then, the system continued flowing the running buffer until the baseline was stable before future steps.
To detect binding between small molecules and U4/U6 snRNA, a 50 μL compound solution was applied to both Fc1 and Fc2 channels simultaneously at a higher flow rate (25 μL/min). The binding curve contains 120 s association and 200 s dissociation. A pulse of 10 mM NaOH injection was used for regeneration if needed. To measure the dissociation constant (KD), titrations of compound solutions with a serial dilution were applied. The KD value was then calculated by fitting the binding curves based on a steady-state model in BIAevaluation 4.0 software and plotted in GraphPad Prism 9.

[2] = tested on: K-turn-containing RNAs (92 nt, 68 nt, and 32 nt); test: SMM screening, K-turn-containing RNAs; format: binding, yeast; conditions: Z-score cutoff 3
Description: (§1) For high-throughput screening using SMM, the microarray slides were prepared based on previously reported methods using a robotic microarray printer (Arrayjet, UK).[34] Each slide contained ~7,000 compounds with duplicate spots of each sample. To perform screening, the SMM slide surface was first blocked with 500 nM yeast total tRNA (Invitrogen) in screening buffer (1xPBS, pH 7.4, 0.005% Tween 20) for 2 h prior to target RNA incubation. Then, the 5′-Cy5-labeled U4/U6 RNA construct was folded as above described, followed by buffer exchange to screening buffer. After annealing, the RNA was diluted to 50 nM in screening buffer and incubated with the microarray for another 2 h. After that, the glass slide was gently washed with PBST, PBS, and ddH2O three times in each buffer solution and dried in a centrifuge at 1,700 g for 2 min. Finally, the microarray was imaged with an InnoScan 1100 AL fluorescence scanner (Innopsys, France) at 635 nm and the hits were identified based on the quantified fluorescent intensity of each spot.

[3] = tested on: 79 nt RNA (lacking the K-turn); test: SMM screening, 79 nt RNA; format: binding, yeast; conditions: Z-score cutoff 3
Description: as §1

[4] = tested on: U4U6 RNA for SHAPE-MaP (T7 transcript of Template) (RNA, junction) GGGCCUUCGGGCCAAGGCCUUAUGCACGGGAAAUACGCAUAUCAGUGAGGAUUCGUCCGAGAUUGUGUUUUUGCUGGUGUAAAUCAGCAGUUCCCCUGCAUAAGGCUUCGAUCCGGUUCGCCGGAUCCAAAUCGGGCUUCGGUCCGGUUC; test: SHAPE-MaP (2A3); conditions: KCl (3.3x folding buffer: 1023 mM); potassium phosphate pH 7.0, EDTA; 100 μM compound
[5] = tested on: U4/U6 snRNA construct 92 nt (WT, No. 1) (RNA, junction) GGCCUUAUGCACGGGAAAUACGCAUAUCAGUGAGGAUUCGUCCGAGAUUGUGUUUUUGCUGGUGUAAAUCAGCAGUUCCCCUGCAUAAGGCU; test: SPR steady state; conditions: 1x PBS, pH 7.4, 0.005% Tween 20, 5% DMSO
[6] = tested on: U4/U6 snRNA construct 92 nt (WT, No. 1), unlabeled (RNA, junction) GGCCUUAUGCACGGGAAAUACGCAUAUCAGUGAGGAUUCGUCCGAGAUUGUGUUUUUGCUGGUGUAAAUCAGCAGUUCCCCUGCAUAAGGCU; test: CD melting (260 nm); conditions: PBS; 5 μM RNA, 100 μM compound, 5% DMSO
[7] = tested on: U4/U6 snRNA construct 92 nt (WT, No. 1), Cy5 (RNA, junction) GGCCUUAUGCACGGGAAAUACGCAUAUCAGUGAGGAUUCGUCCGAGAUUGUGUUUUUGCUGGUGUAAAUCAGCAGUUCCCCUGCAUAAGGCU; test: small molecule microarray; conditions: 1x PBS; pH 7.4, 0.005% Tween 20; 50 nM RNA; immobilised compound; Z-score cutoff 3
[8] = tested on: U4/U6 snRNA construct 79 nt (No. 2, K-turn disrupted), Cy5 (RNA, junction) GGCCUUAUGCACGGGAAAUACGCAUAUCGUAAGAUUGUGUUUUUGCUGGUGUAAAUCAGCAGUUCCCCUGCAUAAGGCU; test: small molecule microarray; conditions: 1x PBS; pH 7.4, 0.005% Tween 20; 50 nM RNA; immobilised compound; Z-score cutoff 3
[9] = tested on: U4/U6 snRNA construct 68 nt (No. 3), Cy5 (RNA, junction) GGGAAAUACGCAUAUCAGUGAGGAUUCGUCCGAGAUUGUGUUUUUGCUGGUGUAAAUCAGCAGUUCCC; test: small molecule microarray; conditions: 1x PBS; pH 7.4, 0.005% Tween 20; 50 nM RNA; immobilised compound; Z-score cutoff 3
[10] = tested on: U4/U6 snRNA construct 32 nt (No. 4), Cy5 (RNA, hairpin) CGCAUAUCAGUGAGGAUUCGUCCGAGAUUGUG; test: small molecule microarray; conditions: 1x PBS; pH 7.4, 0.005% Tween 20; 50 nM RNA; immobilised compound; Z-score cutoff 3
Snu13 = molecular target: T1, Snu13 (yeast (species ), UniProt P39990 1-126); test: MST; no compound; 50 nM RNA; MST: 10 mM HEPES pH 7.4, 150 mM NaCl, 0.005% Tween 20, 50 nM RNA (protein buffer, mixed 1:1 with RNA); EMSA: 20 mM Tris-Cl pH 7.6, 150 mM NaCl, 0.1% Triton X-100, 2 mM DTT, room temperature, 8% native PAGE; RNA folded in 11.25 mM K-phosphate pH 7.0, 310 mM KCl, 5 mM EDTA; conditions: label: 5'-Cy5; folded single strand; three-way junction, U4 5' stem-loop with 5x2 internal loop (K-turn)
T1 sequence: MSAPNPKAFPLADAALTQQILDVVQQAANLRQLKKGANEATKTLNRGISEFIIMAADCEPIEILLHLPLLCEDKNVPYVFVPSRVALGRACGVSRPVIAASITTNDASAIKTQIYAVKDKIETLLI

Molecule: Cc1ccc(-n2ncc3c(NCCCN(C)C)ncnc32)cc1Cl [Compound 1]
- Kd [1]: 50.3 ± 1.3 µM
- SMM binding signal [2]: positive binding signals
- SMM binding signal [3]: negative results
- binding [4]: yes
- KD [5]: 50.3 ± 1.3 µM
- ΔTm [6]: -1.5 ± 0.5 °C
- binding [7]: yes
- binding [8]: no
- binding [9]: yes
- binding [10]: yes

Molecule: CCc1nnc(-c2nnc(NCCCN(C)C)c3ccccc23)o1 [Compound 2]
- Kd [1]: 30.5 ± 8.4 µM
- SMM binding signal [2]: positive binding signals
- SMM binding signal [3]: negative results
- KD [5]: 30.5 ± 8.4 µM
- ΔTm [6]: +3.3 ± 0.3 °C
- binding [7]: yes
- binding [8]: no
- binding [9]: yes
- binding [10]: yes

Molecule: CCc1nnc(-c2nnc(NCCN(C)C)c3ccccc23)o1 [Compound 3]
- Kd [1]: 29.2 ± 8.6 µM
- KD [5]: 29.2 ± 8.6 µM

Molecule: CCc1nnc(-c2nnc(NCCN(CC)CC)c3ccccc23)o1 [Compound 4]
- Kd [1]: > 100 µM
- KD ([5]; signal at 100 μM, not fitted): > 100 µM

Molecule: CCCCNc1nnc(-c2nnc(CC)o2)c2ccccc12 [Compound 5]
- Kd [1]: > 100 µM

Molecule: CCc1nnc(-c2nnc(NCCOC)c3ccccc23)o1 [Compound 6]
- Kd [1]: > 100 µM

Molecule: CCc1nnc(-c2nnc(NCCCOC)c3ccccc23)o1 [Compound 7]
- Kd [1]: > 100 µM

Molecule: CCc1nnc(-c2nnc(NCc3cccnc3)c3ccccc23)o1 [Compound 8]
- Kd [1]: > 100 µM

Molecule: CCc1nnc(-c2nnc(NCCCN3CCOCC3)c3ccccc23)o1 [Compound 9]
- Kd [1]: 61.3 ± 38.9 µM
- KD [5]: 61.3 ± 38.9 µM

Molecule: CCc1nnc(-c2nnc(NCCCN3CCN(C)CC3)c3ccccc23)o1 [Compound 10]
- Kd [1]: 51.4 ± 8 µM
- KD [5]: 51.4 ± 8.0 µM

Molecule: CCc1nnc(-c2nnc(NCCC(C)C)c3ccccc23)o1 [Compound 11]
- Kd [1]: > 100 µM

Molecule: CCN(CC)CCNc1nnc(-c2nnc(C3CC3)o2)c2ccccc12 [Compound 12]
- Kd [1]: 24.2 ± 7 µM
- KD [5]: 24.2 ± 7.0 µM

Molecule: COCCNc1nnc(-c2nnc(C3CC3)o2)c2ccccc12 [Compound 13]
- Kd [1]: > 100 µM

Molecule: CN(C)CCNc1nnc(-c2nc(C3CC3)no2)c2ccccc12 [Compound 14]
- Kd [1]: 32.8 ± 11 µM
- KD [5]: 32.8 ± 11.0 µM

Molecule: CCN(CC)CCNc1nnc(-c2nc(C3CC3)no2)c2ccccc12 [Compound 15]
- Kd [1]: 23.4 ± 6 µM
- KD [5]: 23.4 ± 6.0 µM

Molecule: CCCCNc1nnc(-c2nc(C3CC3)no2)c2ccccc12 [Compound 16]
- Kd [1]: > 100 µM

Molecule: COCCNc1nnc(-c2nc(C3CC3)no2)c2ccccc12 [Compound 17]
- Kd [1]: > 100 µM

Molecule: c1cncc(CNc2nnc(-c3nc(C4CC4)no3)c3ccccc23)c1 [Compound 18]
- Kd [1]: > 100 µM

Molecule: c1ccc2c(-c3nc(C4CC4)no3)nnc(NCCN3CCOCC3)c2c1 [Compound 19]
- Kd [1]: 34.5 ± 11.3 µM
- KD [5]: 34.5 ± 11.3 µM

Molecule: c1ccc2c(-c3nc(C4CC4)no3)nnc(NCCCN3CCOCC3)c2c1 [Compound 20]
- Kd [1]: 42.1 ± 8.6 µM
- KD [5]: 42.1 ± 8.6 µM

Molecule: CN1CCN(CCCNc2nnc(-c3nc(C4CC4)no3)c3ccccc23)CC1 [Compound 21]
- Kd [1]: 23 ± 5.3 µM
- KD [5]: 23.0 ± 5.3 µM

Molecule: CN(C)CCCNc1nnc(-c2nc(-c3ccc(F)cc3)no2)c2ccccc12 [Compound 23]
- Kd [1]: 11.9 ± 7.1 µM
- KD [5]: 11.9 ± 7.1 µM

Molecule: Fc1ccc(-c2noc(-c3nnc(NCc4cccnc4)c4ccccc34)n2)cc1 [Compound 24]
- Kd [1]: > 100 µM
- KD ([5]; signal at 100 μM, not fitted): > 100 µM

Molecule: CN1CCN(CCNc2nnc(-c3nc(-c4ccc(F)cc4)no3)c3ccccc23)CC1 [Compound 25]
- Kd [1]: 13.9 ± 3.2 µM
- KD [5]: 13.9 ± 3.2 µM

B1: U4/U6 snRNA 92 nt construct (structured_RNA)
RNA: GGCCUUAUGCACGGGAAAUACGCAUAUCAGUGAGGAUUCGUCCGAGAUUGUGUUUUUGCUGGUGUAAAUCAGCAGUUCCCCUGCAUAAGGCU
- Kd (Snu13): 0.062 ± 0.004 µM
